This is an account of results in patent US11000542B2, “Treatment and prevention of the common cold using povidone-iodine” (FIREBRICK PHARMA LIMITED, priority 2014, dated 2021).

For data set [1], the system named is human rhinovirus (HRV). Conditions: cited from earlier work.
In data set [2] the test system is human influenza virus. Conditions: very low concentrations; Reimer et al (2002); cited from earlier work.
Data set [3] in a line: Intranasal tolerability of aqueous PVP-I preparations (inventors' finding). The data set is classed as in vivo, human. Conditions: repeated, frequent use. From the text:
With respect to the intranasal tolerability of PVP-I, as distinct from ciliotoxicity, the present inventors have discovered that when the concentration of PVP-I in aqueous preparations is greater than 1.0%, the preparation may be irritating to the nasal mucosa in some individuals and not suitable for repeated, frequent and general use, as would be required in the effective treatment or prevention of the common cold. On this consideration, a preferred composition for nasal use is a concentration of PVP-I at or below 1.0%.

Data set [4] deals with herpes simplex virus (HSV). Conditions: Wutzler et al (2002); cited from earlier work.
The conditions of data set [5]: typical; cited from earlier work.
For data set [6], the system named is common cold. Conditions: throat gargle; cited from earlier work.
The test system of data set [7] is nasal cilia. Conditions: Kramer et al (2002), cited from earlier work.
Data set [8] has as its system granulocytes. Conditions: Van den Broek et al (1982); cited from earlier work.
Data set [9] concerns monocytes. Conditions: Van den Broek et al (1982); cited from earlier work.
Data set [10] relates to adenovirus. Conditions: Reimer et al (2002), Wutzler et al (2002); cited from earlier work.
Data set [11] deals with colds due to picornaviruses. Conditions: cited from earlier work.

Consider povidone-iodine [PVP-I], for which the “log reduction in HRV” value in data set [1] (30 second exposure, Wutzler et al (2002)) is listed as 1.1 log. Besides, in data set [1] (30 seconds exposure, any concentration, Reimer et al (2002)), the “reduction in viable virus count” value is roughly 1 log. The “exposure required for a 4 log reduction (microbicidal effect)” value in data set [1] (in vitro, Reimer et al (2002), Wutzler et al (2002)) was 30 minutes; in [10], 5 minutes. In addition, in [1] (maximum exposure period tested 10 minutes, Kawana et al (1997)), the “microbicidal effect against HRV” value is “failed to produce a microbicidal effect against HRV”. The “exposure for a 4 log10 reduction in viable virus count” value in data set [2] is recorded as no more than 30 second. The “PVP-I concentration in aqueous preparations that may be irritating to the nasal mucosa in some individuals” value in data set [3] is given as “greater than 1.0%”. For the same molecule, the “exposure for a microbicidal effect (4 log reduction)” value in data set [4] is 30 seconds. Also, the “free iodine in PVP-I solutions” value in data set [5] is listed as “less than 30 ppm”. Besides, the “effect of gargling on cold symptoms and incidence” value in data set [6] is “no significant effect on nasal cold symptoms or bronchial complications, and no benefit in terms of reducing the incidence of the common cold”. The “PVP-I concentration toxic to the nasal cilia (ciliotoxic)” value in data set [7] (Reimer et al (2002): complete loss of ciliary function) is no less than 2.5%. The “PVP-I concentration not ciliotoxic / suitable for use in the nose” value in data set [7] (Reimer et al (2002)) is reported as no more than 1.25%. Besides, in data set [8], the “PVP-I concentration at which virtually all granulocytes destroyed” value was “above 0.1%”. For the same molecule, the “PVP-I concentration significantly reducing the viability of granulocytes” value in data set [8] was “above 0.05%”. Also, the “PVP-I concentration substantially degrading monocytes” value in data set [9] was “above 0.1%”.

Take `Cc1cc(CCCOc2c(C)cc(-c3noc(C(F)(F)F)n3)cc2C)on1` [pleconaril]: the “cytochrome P450 induction” value in [11] (FDA Advisory Committee review of 2002 NDA) is “a risk of cytochrome P450 induction”. Besides, the “reduction in cold duration” value in [11] (Phase III data) is given as “one”. Further, the “Time to Alleviation of Illness (TAI), cold duration” value in data set [11] (phase three study, Hayden et al (2003)) is reported as 6.3 days.
